Data on three substances can be found in patent publication US8133912B2 (priority 2006, dated 2012).

Data set [1] is described as follows: resolvability (solubility) in ultrapure water. As to conditions: 5 mg scale in 50 μL ultrapure water, stirred.
The next data set concerns cell growth. Format: cell-based.
For a further data set, the system named is mouse. As to conditions: in vivo, po; cited from earlier work.

Consider “methyl aquocobyrinic acid heptamethyl ester perchlorate [hydrophobic vitamin B12]”, for which the resolvability to water entry in data set [1] is given as “not completely dissolved”. The same measure, in the same setting: under “methyl aquocobyrinic acid sodium perchlorate” stands “No precipitate occurred”.

For tetramethyl arsenic [TeMA], the “IC50 (50% Growth inhibition)” value in the data set with cell growth is 8000 µg/mL. Moreover, the “LD50 (50% Lethal dose)” value in the data set on mouse was 900 mg/kg.
